# Measured values taken from patent US20070208085A1 (SOMANTA LIMITED, priority 2006, published 2007).
# Read-outs that look alike come from different tables or passages of the source.
# Experiments:
# NCI-H226 = experiment: NCI human cell line panel cytotoxicity; assay type: cell-based; details: NSCLC, read-out: Log IC50 (converted)
# Protocol: (§1) To identify the activity of the compound of formula IV in additional cell lines, an NCI human cell line panel was screened for sensitivity to the compound. Cytotoxicity was evaluated for chloroethylaminoanthraquinone compounds synthesized as described in EXAMPLE 1, using an in vitro cell based assay as described in Pors et al., Mol. Cancer Ther., 2:607-610 (2003).
# (§2) Human tumor cell lines from the NCI human cell line panel (Table 2) were tested in the assay.
# (§3) Growth inhibition was determined, and was expressed as the concentration (nM) required to inhibit cell growth by 50% (IG50). […] In particular, excellent activity was observed against CNS, colon, NSCLC and renal cancer cell lines. […] Standard methods were used for MTT results (Monks A et. al., J. Natl Cancer Inst. 1991 June 5;83(11):757-66).
# NCI-H322M = experiment: NCI human cell line panel cytotoxicity; assay type: cell-based; details: NSCLC
# Protocol: as §1, §2, §3
# NCI-H460 = experiment: NCI human cell line panel cytotoxicity; assay type: cell-based; details: NSCLC
# Protocol: as §1, §2, §3
# PC3 = experiment: NCI human cell line panel cytotoxicity; assay type: cell-based; details: PC-3, Prostate
# Protocol: as §1, §2, §3
# RPMI 8226 = experiment: NCI human cell line panel cytotoxicity; assay type: cell-based; details: Leuk
# Protocol: as §1, §2, §3
# SF 268 = experiment: NCI human cell line panel cytotoxicity; assay type: cell-based; details: CNS
# Protocol: as §1, §2, §3
# SF 539 = experiment: NCI human cell line panel cytotoxicity; assay type: cell-based; details: CNS
# Protocol: as §1, §2, §3
# SK MEL 5 = experiment: NCI human cell line panel cytotoxicity; assay type: cell-based; details: Melanoma
# Protocol: as §1, §2, §3
# SN12C = experiment: NCI human cell line panel cytotoxicity; assay type: cell-based; details: Renal
# Protocol: as §1, §2, §3
# TK10 = experiment: NCI human cell line panel cytotoxicity; assay type: cell-based; details: TK-10, Renal
# Protocol: as §1, §2, §3
# U251 = experiment: NCI human cell line panel cytotoxicity; assay type: cell-based; details: U-251, CNS
# Protocol: as §1, §2, §3
# UACC-257 = experiment: NCI human cell line panel cytotoxicity; assay type: cell-based; details: Melanoma
# Protocol: as §1, §2, §3
# UACC-62 = experiment: NCI human cell line panel cytotoxicity; assay type: cell-based; details: Melanoma
# Protocol: as §1, §2, §3
# NCI human cell lines = experiment: NCI human cell line panel, mean over cell lines; assay type: cell-based; details: mean against the NCI human cell lines (28 tested)
# Protocol: as §1, §2, §3
# [1] = test system: human osteosarcoma cell line (U-2 OS); experiment: Cell cycle events by flow cytometry and timelapse, cyclin B1-GFP reporter; assay type: cell-based; details: U2-OS
# Protocol: The U2 OS cells were stably transfected with a Green Fluorescent Protein tagged Cyclin B1 reporter and maintained at 37° C. and 5% CO2 in McCoys 5A modified medium (Sigma) supplemented with 2 mM glutamine, 100 units/ml penicillin, 100 μg/ml streptomycin, 10% fetal calf serum and 1000 μg/ml geneticin. Appropriate dilutions were added to the wells to obtain treatment regimes of 0, 10 and 100 nM of the experimental compound.
# The cells were plated in a 6 well plate (density ˜15-20%). Each experiment consisted of the paired drug treatment at the appropriate dose added to the cells and the plate was placed on a stage of an inverted microscope in a sealed environment (37° C./humidified 5% CO2), and the entire apparatus was situated on a vibration-free table. Three fields were selected per well to triplicate the sampling for each experiment. Images at 10× magnification and were taken every 15 minutes over 3 days using a Cohu cooled CCD camera and the programme AQM Advance 6 to store the images. The images were viewed using the Metamorph programme.
# Experimental data derived from the timelapse were analyzed by comparing the morphology of the cells and the relative growth rates per treatment regimen. This was achieved by counting the number of live cells per field every 12 hours (since a normal cell has a generation time of 24 hours) and plotting the data into relative growth curves. The initial rate of growth (between time points 0-12 and 12-24) was then calculated.
# Samples by flow cytometry. U-2 OS cells were treated with the compound in a 6 well plate in an incubator over 2 days. Cells were then extracted from the plate, and Draq5 added to stain the DNA before they were analyzed using a Becton Dickinson FACS Vantage flow cytometer. The flow data was gated for intact cells, and the DRAQ5 levels (indicator of DNA content) were extracted.
# DNA content and Cyclin B1 expression were measured using flow cytometry and a p53 functional human osteosarcoma cell line (U2-OS) as described above.
# [2] = test system: A2780 human ovarian carcinoma cell line; details: cited from earlier work
# [3] = test system: doxorubicin-resistant and cisplatin-resistant tumor cell lines; details: cited from earlier work
structure (smiles),measurement,setting,value
CN(C)CCNc1ccc(NCCN(CCCl)CCCl)c2c1C(=O)c1c(O)ccc(O)c1C2=O [Compound IV],IC50,NCI-H226,53.7 nM
same,IC50,NCI-H322M; read-out: IC50 nM,295 nM
same,IC50,NCI-H322M; read-out: IC50,295 nM
same,IC50,NCI-H322M; read-out: Log IC50 (converted),295 nM
same,IC50,NCI-H460; read-out: IC50 nM,< 10 nM
same,IC50,NCI-H460; read-out: IC50,< 10 nM
same,IC50,NCI-H460; read-out: Log IC50 (converted),≤ 10 nM
same,IC50,PC3; read-out: IC50 nM,50 nM
same,IC50,PC3; read-out: IC50,50.1 nM
same,IC50,PC3; read-out: Log IC50 (converted),50.1 nM
same,IC50,RPMI 8226; read-out: IC50 nM,< 10 nM
same,IC50,RPMI 8226; read-out: IC50,< 10 nM
same,IC50,RPMI 8226; read-out: Log IC50 (converted),≤ 10 nM
same,IC50,SF 268; read-out: IC50 nM,< 10 nM
same,IC50,SF 268; read-out: IC50,< 10 nM
same,IC50,SF 268; read-out: Log IC50 (converted),≤ 10 nM
same,IC50,SF 539; read-out: IC50 nM,< 10 nM
same,IC50,SF 539; read-out: IC50,< 10 nM
same,IC50,SF 539; read-out: Log IC50 (converted),≤ 10 nM
same,IC50,SK MEL 5; read-out: IC50 nM,71 nM
same,IC50,SK MEL 5; read-out: IC50,70.8 nM
same,IC50,SK MEL 5; read-out: Log IC50 (converted),70.8 nM
same,IC50,SN12C; read-out: IC50 nM,27 nM
same,IC50,SN12C; read-out: IC50,26.9 nM
same,IC50,SN12C; read-out: Log IC50 (converted),26.9 nM
same,IC50,TK10; read-out: IC50 nM,407 nM
same,IC50,TK10; read-out: IC50,407 nM
same,IC50,TK10; read-out: Log IC50 (converted),407 nM
same,IC50,U251; read-out: IC50 nM,19 nM
same,IC50,U251; read-out: IC50,19.1 nM
same,IC50,U251; read-out: Log IC50 (converted),19.1 nM
same,IC50,UACC-257; read-out: IC50 nM,1860 nM
same,IC50,UACC-257; read-out: IC50,1860 nM
same,IC50,UACC-257; read-out: Log IC50 (converted),1860 nM
same,IC50,UACC-62; read-out: IC50 nM,219 nM
same,IC50,UACC-62; read-out: IC50,219 nM
same,IC50,UACC-62; read-out: Log IC50 (converted),219 nM
same,IC50,NCI human cell lines,49 nM
same,G2 arrest,[1],limited expression of G2 arrest
same,polyploidy on escape from G2 arrest (B1 cyclin tracking),[1],forced some cells to enter polyploidy via an aberrant mitosis
same,pan-cell cycle progression and mitotic commitment,[1]; compared to untreated cells,slowed pan-cell cycle progression and mitotic commitment
same,induction of apoptosis,[1]; immediate (<24 h),without any immediate (<24 h) induction of apoptosis
same,cytotoxicity,[2],potent cytotoxicity
same,cellular drug resistance,"[3]; Pors et al., 2003",very low resistance
same,cytotoxicity against resistant cell lines,"[3]; doxorubicin-resistant and cisplatin-resistant tumor cell lines, in vitro",maintained potent cytotoxicity
same,resistance relative to doxorubicin,"[3]; fold less resistant, Pors et al., 2003",250 fold
same,resistance relative to the other chloroethylaminoanthraquinones tested,"[3]; fold less, Pors et al., 2003",20-150 fold
